Values quoted from earlier work in patent publication US6338859B1, “Polymeric micelle compositions” (Labopharm Inc., priority 2000, dated 2002).
Values joined by “and” are separate entries in the source; they are usually repeats but may differ in a detail not shown here. Equal entries are not always repeated. Where two headings read alike, the source gives them in different places. Marks after values point to notes of the source that are not given here. One block for each molecule: values may come before it.

Assays:
[1] = not given; remark: listed apart in the source
[2] = polymer PEO-PBLA, physical entrapment
[3] = polymer PEO-P(Asp), chemical bonding
[4] = polymer PEO-PE, physical entrapment

Molecule: C[C@@H]1[C@H](O)[C@@H](C)/C=C/C=C/C=C/C=C/C=C/C=C/C=C/[C@H](O[C@@H]2O[C@H](C)[C@@H](O)[C@H](N)[C@@H]2O)C[C@@H]2O[C@](O)(C[C@@H](O)C[C@@H](O)[C@H](O)CC[C@@H](O)C[C@@H](O)CC(=O)O[C@H]1C)C[C@H](O)[C@H]2C(=O)O [Amphotericin B]
Micelle size with drug [2]: 26 nm
hemolytic activity ([1]; after incorporation into PEO-PBLA micelles): decrease

Molecule: N.N.[Cl][Pt][Cl] [Cisplatin]
Micelle size with drug [3]: 16 nm

Molecule: COc1cccc2c1C(=O)c1c(O)c3c(c(O)c1C2=O)C[C@@](O)(C(=O)CO)C[C@@H]3O[C@H]1C[C@H](N)[C@H](O)[C@H](C)O1 [DOX, doxorubicin]
Micelle size with drug [3]: 14-131 nm and 17-42 nm
Micelle size with drug (polymer PEO-P(Asp), chemical bonding, listed as Doxirubicin (DOX)): 50 nm
Micelle size with drug [2]: 30 nm and 37 nm
retention of drug in micelles ([1]; in PEO-PBLA after freeze drying and reconstitution in water, iodide quenching): retained

Molecule: Cc1cc(N)c2ccccc2[n+]1CCCCCCCCCC[n+]1c(C)cc(N)c2ccccc21 [Dequalinium]
Micelle size with drug [4]: 15 nm

Molecule: Gd-DTPA-PE
Micelle size with drug [4]: 20 nm

Molecule: ^111In-DTPA-SA
Micelle size with drug [4]: 20 nm

B1: Soybean trypsin inhibitor: Soybean trypsin inhibitor physically entrapped in PEO-PE micelles (protein, UniProt P01070 25-205, looked up)
Trypsin inhibitor A: DFVLDNEGNPLENGGTYYILSDITAFGGIRAAPTGNERCPLTVVQSRNELDKGIGTIISSPYRIRFIAEGHPLSLKFDSFAVIMLCVGIPTEWSVVEDLPEGPAVKIGENKDAMDGWFRLERVSDDEFNNYKLVFCPQQAEDDKCGDIGISIDHDDGTRRLVVSKNKPLVVQFQKLDKESL
modifications: entrapped in PEO-PE micelles
Micelle size with drug [4]: 15 nm

Further lines, results first:

Micelle size with drug (polymer PEO-PPO-PEO, physical entrapment): 15 nm
Molecule: O=C(CCCN1CCC(O)(c2ccc(Cl)cc2)CC1)c1ccc(F)cc1 [Haloperidol]

Micelle size with drug [2]: 25-29 nm
Micelle size with drug (polymer PEO-PCL, physical entrapment): 145-165 nm and 114-156 nm
Molecule: COc1ccc2c(c1)c(CC(=O)O)c(C)n2C(=O)c1ccc(Cl)cc1 [Indomethacin]

Micelle size with drug (polymer PEO-(C16, BLA), physical entrapment, after the sonication of PEO(C16, BLA) aggregates): 71* nm
Molecule: KRN-5500
